Assay results taken from US9763445B2, “Safened herbicidal compositions comprising a pyridine carboxylic acid herbicide” (Dow AgroSciences, LLC, priority 2014, dated 2017).

How the values were obtained:
[1] = test system: common poppy (PAPRH); experiment: Postemergence greenhouse trial, % visual injury on common poppy; format: in vivo, Papaver rhoeas; details: for % visual injury, Ob / % visual injury, observed (Ob): PAPRH; for % visual injury, Ob: compound 0 g/ha
Outline: (§1)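 Herbicide rates g ae/ha, safener (cloquintocet-mexyl) rates g ai/ha; spray carrier 1.5% v/v crop oil concentrate, 187 L/ha, 2nd–3rd leaf stage. Rating: visual % injury at 20-22 d.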

[2] = test system: Russian thistle (SASKR); experiment: Postemergence greenhouse trial, % visual injury on Russian thistle; format: in vivo, Salsola kali
[3] = test system: wild mustard (SINAR); experiment: Postemergence greenhouse trial, % visual injury on wild mustard; format: in vivo, Sinapis arvensis; details: for % visual injury, Ob / % visual injury, observed (Ob): SINAR
Outline: as §1

[4] = test system: cornflower (CENCY); experiment: Postemergence greenhouse trial, % visual injury on cornflower; format: in vivo, Centaurea cyanus or Cyanus segetum
[5] = compound 8 0 + CQC-m 4.375 g/ha

CCCCCC(C)OC(=O)COc1ccc(Cl)c2cccnc12 (centres unmarked) [CQC-m, cloquintocet-mexyl, reference compound]
0%: % visual injury, Ob ([1]; CQC-m 35 g/ha) | % visual injury, Ob ([1]; CQC-m 70 g/ha) | % visual injury, observed (Ob) [1, 5] | % visual injury, observed (Ob) ([1]; compound 8 0 + CQC-m 8.75 g/ha) | % visual injury, observed (Ob) ([1]; compound 8 0 + CQC-m 17.5 g/ha) | % visual injury, observed (Ob) ([1]; compound 8 0 + CQC-m 35 g/ha) | % visual injury, observed (Ob) ([1]; compound 8 0 + CQC-m 70 g/ha) | pest or weed control at 4.375 g/ha ([1]; Papaver rhoeas, post-emergence, alone, 4.375 g/ha, read-out: % visual injury, Ob) | pest or weed control at 8.75 g/ha ([1]; Papaver rhoeas, post-emergence, alone, 8.75 g/ha, read-out: % visual injury, Ob) | pest or weed control at 17.5 g/ha ([1]; Papaver rhoeas, post-emergence, alone, 17.5 g/ha, read-out: % visual injury, Ob) | pest or weed control at 35 g/ha ([1]; Papaver rhoeas, post-emergence, alone, 35 g/ha, read-out: % visual injury, Ob) | pest or weed control at 70 g/ha ([1]; Papaver rhoeas, post-emergence, alone, 70 g/ha, read-out: % visual injury, Ob) | % visual injury, Ob ([2]; SASKR, 4.375 g/ha, applied alone) | % visual injury, Ob ([2]; SASKR, 8.75 g/ha, applied alone) | % visual injury, Ob ([2]; SASKR, 17.5 g/ha, applied alone) | % visual injury, Ob ([2]; SASKR, 35 g/ha, applied alone) | % visual injury, Ob ([2]; SASKR, 70 g/ha, applied alone) | % visual injury, Ob ([2]; SASKR, compound 0, CQC-m 4.375 g/ha) | % visual injury, Ob ([2]; SASKR, compound 0, CQC-m 8.75 g/ha) | % visual injury, Ob ([2]; SASKR, compound 0, CQC-m 17.5 g/ha) | % visual injury, Ob ([2]; SASKR, compound 0, CQC-m 35 g/ha) | % visual injury, Ob ([2]; SASKR, compound 0, CQC-m 70 g/ha) | % visual injury, Ob ([2]; SASKR, compound 0 g/ha, CQC-m 4.375 g/ha) | % visual injury, Ob ([2]; SASKR, compound 0 g/ha, CQC-m 8.75 g/ha) | % visual injury, Ob ([2]; SASKR, compound 0 g/ha, CQC-m 17.5 g/ha) | % visual injury, Ob ([2]; SASKR, compound 0 g/ha, CQC-m 35 g/ha) | % visual injury, Ob ([2]; SASKR, compound 0 g/ha, CQC-m 70 g/ha) | % visual injury, observed (Ob) ([2]; SASKR, compound 8 0 + CQC-m 4.375 g/ha) | % visual injury, observed (Ob) ([2]; SASKR, compound 8 0 + CQC-m 8.75 g/ha) | % visual injury, observed (Ob) ([2]; SASKR, compound 8 0 + CQC-m 17.5 g/ha) | % visual injury, observed (Ob) ([2]; SASKR, compound 8 0 + CQC-m 35 g/ha) | % visual injury, observed (Ob) ([2]; SASKR, compound 8 0 + CQC-m 70 g/ha) | % visual injury, Ob ([2]; alone, 4.375 g/ha) | % visual injury, Ob ([2]; alone, 8.75 g/ha) | % visual injury, Ob ([2]; alone, 17.5 g/ha) | % visual injury, Ob ([2]; alone, 35 g/ha) | % visual injury, Ob ([2]; alone, 70 g/ha) | pest or weed control at 4.375 g/ha ([3]; Brassica, post-emergence, alone, 4.375 g/ha, read-out: % visual injury, Ob) | pest or weed control at 8.75 g/ha ([3]; Brassica, post-emergence, alone, 8.75 g/ha, read-out: % visual injury, Ob) | pest or weed control at 17.5 g/ha ([3]; Brassica, post-emergence, alone, 17.5 g/ha, read-out: % visual injury, Ob) | pest or weed control at 35 g/ha ([3]; Brassica, post-emergence, alone, 35 g/ha, read-out: % visual injury, Ob) | pest or weed control at 70 g/ha ([3]; Brassica, post-emergence, alone, 70 g/ha, read-out: % visual injury, Ob) | % visual injury, Ob ([3]; 4.375 g/ha, applied alone) | % visual injury, Ob ([3]; 8.75 g/ha, applied alone) | % visual injury, Ob ([3]; 17.5 g/ha, applied alone) | % visual injury, Ob ([3]; 35 g/ha, applied alone) | % visual injury, Ob ([3]; 70 g/ha, applied alone) | % visual injury, Ob ([3]; compound 0, CQC-m 4.375 g/ha) | % visual injury, Ob ([3]; compound 0, CQC-m 8.75 g/ha) | % visual injury, Ob ([3]; compound 0, CQC-m 17.5 g/ha) | % visual injury, Ob ([3]; compound 0, CQC-m 35 g/ha) | % visual injury, Ob ([3]; compound 0, CQC-m 70 g/ha) | % visual injury, Ob ([3]; compound 0 g/ha, CQC-m 4.375 g/ha) | % visual injury, Ob ([3]; compound 0 g/ha, CQC-m 8.75 g/ha) | % visual injury, Ob ([3]; compound 0 g/ha, CQC-m 17.5 g/ha) | % visual injury, Ob ([3]; compound 0 g/ha, CQC-m 35 g/ha) | % visual injury, Ob ([3]; compound 0 g/ha, CQC-m 70 g/ha) | % visual injury, observed (Ob) [3, 5] | % visual injury, observed (Ob) ([3]; compound 8 0 + CQC-m 8.75 g/ha) | % visual injury, observed (Ob) ([3]; compound 8 0 + CQC-m 17.5 g/ha) | % visual injury, observed (Ob) ([3]; compound 8 0 + CQC-m 35 g/ha) | % visual injury, observed (Ob) ([3]; compound 8 0 + CQC-m 70 g/ha) | % visual injury, Ob ([4]; CENCY, compound 0, CQC-m 4.375 g/ha) | % visual injury, Ob ([4]; CENCY, compound 0, CQC-m 8.75 g/ha) | % visual injury, Ob ([4]; CENCY, compound 0, CQC-m 17.5 g/ha) | % visual injury, Ob ([4]; CENCY, compound 0, CQC-m 35 g/ha) | % visual injury, Ob ([4]; CENCY, compound 0, CQC-m 70 g/ha) | % visual injury, Ob ([4]; CENCY, compound 0 g/ha, CQC-m 4.375 g/ha) | % visual injury, Ob ([4]; CENCY, compound 0 g/ha, CQC-m 8.75 g/ha) | % visual injury, Ob ([4]; CENCY, compound 0 g/ha, CQC-m 17.5 g/ha) | % visual injury, Ob ([4]; CENCY, compound 0 g/ha, CQC-m 35 g/ha) | % visual injury, Ob ([4]; CENCY, compound 0 g/ha, CQC-m 70 g/ha) | % visual injury, Ob ([4]; alone, 17.5 g/ha) | % visual injury, Ob ([4]; alone, 70 g/ha)
